Experiments:
Assay in all cases: cells
Conditions in all cases: Homo sapiens
HCC1187 = type: functional, cell-based;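 further: growth inhibition of HCC1187 cells, read out with a cell viability assay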
Description: SANGER: Inhibition of human HCC1187 cell growth in a cell viability assay.

MFM-223 = type: functional, cell-based
Description: SANGER: Inhibition of human MFM-223 cell growth in a cell viability assay.

JVM-2 = type: functional, cell-based;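 further: growth inhibition of JVM-2 cells determined by a cell viability assay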
Description: SANGER: Inhibition of human JVM-2 cell growth in a cell viability assay.

SK-N-FI = type: functional, cell-based;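 further: cell viability assay measuring growth inhibition of human SK-N-FI cells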
Description: SANGER: Inhibition of human SK-N-FI cell growth in a cell viability assay.

HAL-01 = type: functional, cell-based;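 further: growth inhibition of human HAL-01 cells, read out with a cell viability assay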
Description: SANGER: Inhibition of human HAL-01 cell growth in a cell viability assay.

A3-KAW = type: functional, cell-based;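 further: growth inhibition of human A3-KAW cells, read out with a cell viability assay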
Description: SANGER: Inhibition of human A3-KAW cell growth in a cell viability assay.

no-10 = type: functional, cell-based;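 further: growth inhibition of no-10 cells, read out with a cell viability assay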
Description: SANGER: Inhibition of human no-10 cell growth in a cell viability assay.

LB2518-MEL = type: functional, cell-based;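 further: growth inhibition of human LB2518-MEL cells, measured with a cell viability assay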
Description: SANGER: Inhibition of human LB2518-MEL cell growth in a cell viability assay.

LC-2-ad = type: functional, cell-based;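 further: growth inhibition of human LC-2-ad cells, read out with a cell viability assay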
Description: SANGER: Inhibition of human LC-2-ad cell growth in a cell viability assay.

TGBC1TKB = type: functional, cell-based;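 further: growth inhibition of TGBC1TKB cells, read out by a cell viability assay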
Description: SANGER: Inhibition of human TGBC1TKB cell growth in a cell viability assay.

LAMA-84 = type: functional, cell-based;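 further: growth inhibition of LAMA-84 cells, read out with a cell viability assay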
Description: SANGER: Inhibition of human LAMA-84 cell growth in a cell viability assay.

BB65-RCC = type: functional, cell-based;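 further: growth inhibition of the cell line, measured with a cell viability assay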
Description: SANGER: Inhibition of human BB65-RCC cell growth in a cell viability assay.

NCI-H720 = type: functional, cell-based;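 further: growth inhibition of human NCI-H720 cells determined by a cell viability assay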
Description: SANGER: Inhibition of human NCI-H720 cell growth in a cell viability assay.

ETK-1 = type: functional, cell-based;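 further: growth inhibition of human ETK-1 cells, read out with a cell viability assay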
Description: SANGER: Inhibition of human ETK-1 cell growth in a cell viability assay.

TE-12 = type: functional, cell-based;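 further: growth inhibition of TE-12 cells, read out by a cell viability assay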
Description: SANGER: Inhibition of human TE-12 cell growth in a cell viability assay.

Calu-6 = type: functional, cell-based;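 further: growth of human Calu-6 cells, read out by a cell viability assay, IC50 marking inhibition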
Description: SANGER: Inhibition of human Calu-6 cell growth in a cell viability assay.

DEL = type: functional, cell-based;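 further: growth inhibition of the human DEL cell line, read out with a cell viability assay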
Description: SANGER: Inhibition of human DEL cell growth in a cell viability assay.

SK-N-DZ = type: functional, cell-based;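 further: growth inhibition of the cancer cell line, read out through a viability assay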
Description: SANGER: Inhibition of human SK-N-DZ cell growth in a cell viability assay.

HT-144 = type: functional, cell-based
Description: SANGER: Inhibition of human HT-144 cell growth in a cell viability assay.

NCI-H1395 = type: functional, cell-based;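 further: cell viability assay read-out quantifying reduced proliferation of human NCI-H1395 cells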
Description: SANGER: Inhibition of human NCI-H1395 cell growth in a cell viability assay.

NCI-H82 = type: functional, cell-based;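 further: growth inhibition of NCI-H82 cells, measured with a cell viability readout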
Description: SANGER: Inhibition of human NCI-H82 cell growth in a cell viability assay.

MC116 = type: functional, cell-based;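 further: growth inhibition of MC116 cells, read out with a cell viability assay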
Description: SANGER: Inhibition of human MC116 cell growth in a cell viability assay.

A498 = type: functional, cell-based;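 further: growth inhibition of human A498 cells, read out with a cell viability assay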
Description: SANGER: Inhibition of human A498 cell growth in a cell viability assay.

OCUB-M = type: functional, cell-based;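 further: growth inhibition of the cancer cell line, read out through a cell viability assay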
Description: SANGER: Inhibition of human OCUB-M cell growth in a cell viability assay.

SW872 = type: functional, cell-based;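 further: growth inhibition of SW872 cells, read out by a viability assay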
Description: SANGER: Inhibition of human SW872 cell growth in a cell viability assay.

NCI-H1092 = type: functional, cell-based;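 further: cell growth inhibition measured with a cell viability assay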
Description: SANGER: Inhibition of human NCI-H1092 cell growth in a cell viability assay.

EOL1 = type: functional, cell-based;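 further: growth inhibition of EoL-1 cells, read out by a cell viability assay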
Description: SANGER: Inhibition of human EoL-1-cell cell growth in a cell viability assay.

RS4-11 = type: functional, cell-based;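 further: growth inhibition of RS4-11 cells, read out by a cell viability assay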
Description: SANGER: Inhibition of human RS4-11 cell growth in a cell viability assay.

NCI-H226 = type: functional, cell-based;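 further: cell viability read-out used to gauge growth inhibition of the cells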
Description: SANGER: Inhibition of human NCI-H226 cell growth in a cell viability assay.

IST-SL1 = type: functional, cell-based;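 further: growth inhibition of human IST-SL1 cells, read out with a cell viability assay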
Description: SANGER: Inhibition of human IST-SL1 cell growth in a cell viability assay.

RH-1 = type: functional, cell-based;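 further: growth inhibition of human RH-1 cells, read out with a cell viability assay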
Description: SANGER: Inhibition of human RH-1 cell growth in a cell viability assay.

MZ2-MEL = type: functional, cell-based;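 further: growth inhibition of MZ2-MEL cells read out with a cell viability assay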
Description: SANGER: Inhibition of human MZ2-MEL cell growth in a cell viability assay.

MPP-89 = type: functional, cell-based;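 further: growth inhibition of human MPP-89 cells, read out with a cell viability assay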
Description: SANGER: Inhibition of human MPP-89 cell growth in a cell viability assay.

ATN-1 = type: functional, cell-based;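 further: growth inhibition of human ATN-1 cells, read out with a cell viability assay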
Description: SANGER: Inhibition of human ATN-1 cell growth in a cell viability assay.

SCH = type: functional, cell-based;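 further: growth inhibition of human SCH cells, read out in a cell viability assay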
Description: SANGER: Inhibition of human SCH cell growth in a cell viability assay.

NB13 = type: functional, cell-based;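 further: cell viability readout measuring growth inhibition of human NB13 cells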
Description: SANGER: Inhibition of human NB13 cell growth in a cell viability assay.

SHP77 = type: functional, cell-based, SHP-77;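 further: growth inhibition of human SHP-77 cells measured by a cell viability assay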
Description: SANGER: Inhibition of human SHP-77 cell growth in a cell viability assay.

NCI-H23 = type: functional, cell-based;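 further: cell viability assay measuring growth inhibition of NCI-H23 cells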
Description: SANGER: Inhibition of human NCI-H23 cell growth in a cell viability assay.

L-428 = type: functional, cell-based
Description: SANGER: Inhibition of human L-428 cell growth in a cell viability assay.

CAS-1 = type: functional, cell-based;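 further: growth inhibition of CAS-1 cells, measured with a cell viability assay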
Description: SANGER: Inhibition of human CAS-1 cell growth in a cell viability assay.

GAK = type: functional, cell-based;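 further: cell growth inhibition read out by a cell viability assay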
Description: SANGER: Inhibition of human GAK cell growth in a cell viability assay.

OVCAR-4 = type: functional, cell-based;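 further: growth inhibition of human OVCAR-4 cells, measured with a cell viability assay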
Description: SANGER: Inhibition of human OVCAR-4 cell growth in a cell viability assay.

COLO-824 = type: functional, cell-based
Description: SANGER: Inhibition of human COLO-824 cell growth in a cell viability assay.

BV-173 = type: functional, cell-based
Description: SANGER: Inhibition of human BV-173 cell growth in a cell viability assay.

DMS-114 = type: functional, cell-based
NCI-H1304 = type: functional, cell-based;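 further: growth inhibition of the cancer cell line, measured in a cell viability assay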
Description: SANGER: Inhibition of human NCI-H1304 cell growth in a cell viability assay.

NH-12 = type: functional, cell-based;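 further: growth inhibition of NH-12 cells, read out with a cell viability assay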
Description: SANGER: Inhibition of human NH-12 cell growth in a cell viability assay.

CTV-1 = type: functional, cell-based;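 further: growth inhibition of the cell line, read out with a cell viability assay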
Description: SANGER: Inhibition of human CTV-1 cell growth in a cell viability assay.

SNB-75 = type: functional, cell-based;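 further: cell viability assay measuring growth inhibition of human SNB-75 cells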
Description: SANGER: Inhibition of human SNB75 cell growth in a cell viability assay.

LU-139 = type: functional, cell-based
Description: SANGER: Inhibition of human LU-139 cell growth in a cell viability assay.

RCC10RGB = type: functional, cell-based;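 further: growth inhibition of human RCC10RGB cells, read out by a cell viability assay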
Description: SANGER: Inhibition of human RCC10RGB cell growth in a cell viability assay.

OS-RC-2 = type: functional, cell-based;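 further: growth inhibition of human OS-RC-2 cells, measured by a cell viability assay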
Description: SANGER: Inhibition of human OS-RC-2 cell growth in a cell viability assay.

NCI-H1770 = type: functional, cell-based;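 further: growth inhibition of NCI-H1770 cells determined with a viability readout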
Description: SANGER: Inhibition of human NCI-H1770 cell growth in a cell viability assay.

OCI-AML2 = type: functional, cell-based;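 further: growth inhibition of OCI-AML2 cells, read out with a cell viability assay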
Description: SANGER: Inhibition of human OCI-AML2 cell growth in a cell viability assay.

KU812 cell line = type: functional, cell-based;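 further: growth inhibition of KU812 cells, read out with a cell viability assay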
Description: SANGER: Inhibition of human KU812 cell growth in a cell viability assay.

SW684 = type: functional, cell-based
Description: SANGER: Inhibition of human SW684 cell growth in a cell viability assay.

DSH1 = type: functional, cell-based
Description: SANGER: Inhibition of human DSH1 cell growth in a cell viability assay.

HD-MY-Z = type: functional, cell-based
Description: SANGER: Inhibition of human HD-MY-Z cell growth in a cell viability assay.

NCI-H2126 = type: functional, cell-based
Description: SANGER: Inhibition of human NCI-H2126 cell growth in a cell viability assay.

COLO-829 = type: functional, cell-based
Description: SANGER: Inhibition of human COLO-829 cell growth in a cell viability assay.

KALS-1 = type: functional, cell-based
Description: SANGER: Inhibition of human KALS-1 cell growth in a cell viability assay.

SK-UT-1 = type: functional, cell-based
Description: SANGER: Inhibition of human SK-UT-1 cell growth in a cell viability assay.

SMILES: CC(=O)c1c(C)c2cnc(Nc3ccc(N4CCNCC4)cn3)nc2n(C2CCCC2)c1=O [PALBOCICLIB]
- IC50 (HCC1187): > 4000 nM
- IC50 (MFM-223): > 4000 nM
- IC50 (JVM-2): > 4000 nM
- IC50 (SK-N-FI): > 4000 nM
- IC50 (HAL-01): 606 nM
- IC50 (A3-KAW): 1080 nM
- IC50 (no-10): > 4000 nM
- IC50 (LB2518-MEL): > 4000 nM
- IC50 (LC-2-ad): > 4000 nM
- IC50 (TGBC1TKB): > 4000 nM
- IC50 (LAMA-84): 258 nM
- IC50 (BB65-RCC): 1510 nM
- IC50 (NCI-H720): > 4000 nM
- IC50 (ETK-1): 3050 nM
- IC50 (TE-12): > 4000 nM
- IC50 (Calu-6): > 4000 nM
- IC50 (DEL): 1700 nM
- IC50 (SK-N-DZ): > 4000 nM
- IC50 (HT-144): > 4000 nM
- IC50 (NCI-H1395): > 4000 nM
- IC50 (NCI-H82): > 4000 nM
- IC50 (MC116): > 4000 nM
- IC50 (A498): > 4000 nM
- IC50 (OCUB-M): > 4000 nM
- IC50 (SW872): 1980 nM
- IC50 (NCI-H1092): > 4000 nM
- IC50 (EOL1): 187 nM
- IC50 (RS4-11): 505 nM
- IC50 (NCI-H226): > 4000 nM
- IC50 (IST-SL1): > 4000 nM
- IC50 (RH-1): > 4000 nM
- IC50 (MZ2-MEL): 1800 nM
- IC50 (MPP-89): > 4000 nM
- IC50 (ATN-1): > 4000 nM
- IC50 (SCH): > 4000 nM
- IC50 (NB13): > 4000 nM
- IC50 (SHP77): > 4000 nM
- IC50 (NCI-H23): > 4000 nM
- IC50 (L-428): > 4000 nM
- IC50 (CAS-1): > 4000 nM
- IC50 (GAK): > 4000 nM
- IC50 (OVCAR-4): > 4000 nM
- IC50 (COLO-824): > 4000 nM
- IC50 (BV-173): 652 nM
- IC50 (DMS-114): > 4000 nM
- IC50 (NCI-H1304): > 4000 nM
- IC50 (NH-12): > 4000 nM
- IC50 (CTV-1): 2530 nM
- IC50 (SNB-75): > 4000 nM
- IC50 (LU-139): > 4000 nM
- IC50 (RCC10RGB): > 4000 nM
- IC50 (OS-RC-2): 522 nM
- IC50 (NCI-H1770): 941 nM
- IC50 (OCI-AML2): > 4000 nM
- IC50 (KU812 cell line): 1890 nM
- IC50 (SW684): > 4000 nM
- IC50 (DSH1): > 4000 nM
- IC50 (HD-MY-Z): > 4000 nM

SMILES: Cn1c(=O)n(-c2ccc(C(C)(C)C#N)cc2)c2c3cc(-c4cnc5ccccc5c4)ccc3ncc21 [DACTOLISIB]
- IC50 (HCC1187): 576 nM
- IC50 (MFM-223): 132 nM
- IC50 (JVM-2): > 2000 nM
- IC50 (SK-N-FI): 148 nM
- IC50 (HAL-01): 55.8 nM
- IC50 (NCI-H2126): 148 nM
- IC50 (A3-KAW): 28.6 nM
- IC50 (no-10): 201 nM
- IC50 (LB2518-MEL): 157 nM
- IC50 (LC-2-ad): 159 nM
- IC50 (TGBC1TKB): 23.1 nM
- IC50 (LAMA-84): 35.9 nM
- IC50 (BB65-RCC): 12.7 nM
- IC50 (COLO-829): 296 nM
- IC50 (NCI-H720): 3.57 nM
- IC50 (ETK-1): 7.88 nM
- IC50 (TE-12): 141 nM
- IC50 (Calu-6): > 2000 nM
- IC50 (DEL): 20.5 nM
- IC50 (SK-N-DZ): > 2000 nM
- IC50 (HT-144): 196 nM
- IC50 (NCI-H1395): 199 nM
- IC50 (NCI-H82): > 2000 nM
- IC50 (MC116): 57.8 nM
- IC50 (A498): 75.2 nM
- IC50 (OCUB-M): 82.4 nM
- IC50 (SW872): 64.6 nM
- IC50 (NCI-H1092): 145 nM
- IC50 (EOL1): 13.9 nM
- IC50 (RS4-11): 26.9 nM
- IC50 (NCI-H226): 708 nM
- IC50 (IST-SL1): 1440 nM
- IC50 (RH-1): 54.7 nM
- IC50 (MZ2-MEL): 39.7 nM
- IC50 (MPP-89): 25.3 nM
- IC50 (ATN-1): 73.9 nM
- IC50 (SCH): 67.1 nM
- IC50 (NB13): 118 nM
- IC50 (SHP77): > 2000 nM
- IC50 (NCI-H23): 219 nM
- IC50 (L-428): 275 nM
- IC50 (KALS-1): 82.5 nM
- IC50 (CAS-1): 207 nM
- IC50 (GAK): 98.9 nM
- IC50 (OVCAR-4): 73.4 nM
- IC50 (COLO-824): 689 nM
- IC50 (BV-173): 23.9 nM
- IC50 (DMS-114): 125 nM
- IC50 (NCI-H1304): 1650 nM
- IC50 (NH-12): 133 nM
- IC50 (CTV-1): 32.8 nM
- IC50 (SNB-75): 54.3 nM
- IC50 (LU-139): 7.77 nM
- IC50 (RCC10RGB): 224 nM
- IC50 (OS-RC-2): 16.5 nM
- IC50 (NCI-H1770): 327 nM
- IC50 (OCI-AML2): 82.6 nM
- IC50 (KU812 cell line): 68.7 nM
- IC50 (SW684): 196 nM
- IC50 (DSH1): 407 nM
- IC50 (HD-MY-Z): 44.9 nM

SMILES: O=c1cc(N2CCOCC2)oc2c(-c3cccc4c3sc3ccccc34)cccc12
- IC50 (HCC1187): > 2000 nM
- IC50 (MFM-223): > 2000 nM
- IC50 (SK-N-FI): > 2000 nM
- IC50 (HAL-01): > 2000 nM
- IC50 (NCI-H2126): > 2000 nM
- IC50 (A3-KAW): > 2000 nM
- IC50 (no-10): > 2000 nM
- IC50 (LB2518-MEL): > 2000 nM
- IC50 (LC-2-ad): > 2000 nM
- IC50 (TGBC1TKB): > 2000 nM
- IC50 (LAMA-84): 988 nM
- IC50 (BB65-RCC): > 2000 nM
- IC50 (COLO-829): > 2000 nM
- IC50 (ETK-1): > 2000 nM
- IC50 (TE-12): > 2000 nM
- IC50 (Calu-6): > 2000 nM
- IC50 (DEL): > 2000 nM
- IC50 (SK-N-DZ): > 2000 nM
- IC50 (HT-144): > 2000 nM
- IC50 (NCI-H1395): > 2000 nM
- IC50 (NCI-H82): > 2000 nM
- IC50 (MC116): > 2000 nM
- IC50 (A498): > 2000 nM
- IC50 (OCUB-M): > 2000 nM
- IC50 (SW872): > 2000 nM
- IC50 (NCI-H1092): > 2000 nM
- IC50 (RS4-11): > 2000 nM
- IC50 (NCI-H226): > 2000 nM
- IC50 (IST-SL1): > 2000 nM
- IC50 (RH-1): > 2000 nM
- IC50 (MZ2-MEL): > 2000 nM
- IC50 (MPP-89): > 2000 nM
- IC50 (ATN-1): > 2000 nM
- IC50 (SCH): > 2000 nM
- IC50 (NB13): > 2000 nM
- IC50 (SHP77): > 2000 nM
- IC50 (NCI-H23): > 2000 nM
- IC50 (L-428): > 2000 nM
- IC50 (KALS-1): > 2000 nM
- IC50 (CAS-1): > 2000 nM
- IC50 (GAK): > 2000 nM
- IC50 (OVCAR-4): > 2000 nM
- IC50 (COLO-824): > 2000 nM
- IC50 (SK-UT-1): > 2000 nM
- IC50 (DMS-114): > 2000 nM
- IC50 (NCI-H1304): > 2000 nM
- IC50 (NH-12): > 2000 nM
- IC50 (SNB-75): > 2000 nM
- IC50 (RCC10RGB): > 2000 nM
- IC50 (OS-RC-2): > 2000 nM
- IC50 (NCI-H1770): 21.4 nM
- IC50 (OCI-AML2): > 2000 nM
- IC50 (SW684): > 2000 nM
- IC50 (DSH1): > 2000 nM
- IC50 (HD-MY-Z): > 2000 nM

Reference: ChEMBL document CHEMBL1201861, “Genomics of Drug Sensitity in Cancer screening data, Wellcome Trust Sanger Institute”
